Data on 1 compound can be found in publication PMC11455950, “Effects of SZV-2649, a new multiple ion channel inhibitor mexiletine analogue” (Scientific Reports, 2024).

Test [1] deals with inward rectifier potassium (IK1) current. The test can be described thus: Whole-cell patch-clamp, steady state current-voltage relation in dog ventricular myocytes. To be noted: 10 µM, dog left ventricular myocytes. Format: cell-based. The text has this:
(§1) The effects of SZV-2649 on transmemrane ionic currents were investigated in dog cardiac myocytes after a 5-minute superfusion of the drug.
Figure 4D represents the steady state current-voltage relation after 300 ms pulses from − 100 mV to 60 mV using 10 mV increments applying 3-second pulsing cycle length from the holding potential of -90 mV.
(§2) Ventricular myocytes from Beagle dogs were enzymatically dissociated as described in detail previously. A single droplet of cell suspension was placed in a transparent recording chamber mounted on the stage of an inverted microscope (Olympus IX51, Olympus, Tokyo, Japan), and individual myocytes were allowed to settle and adhere to the chamber bottom for at least 5–10 min before superfusion was initiated and maintained by gravity. Only rod-shaped cells with clear striations were used. […]
(§3) The membrane currents were recorded with Axopatch-200B amplifiers (Molecular Devices, Sunnyvale, CA, USA) by means of the whole-cell configuration of the patch-clamp technique. […]
The inward rectifier (IK1), the transient outward (Ito), the rapid (IKr) and the slow (IKs) delayed rectifier potassium currents were recorded in HEPES-buffered Tyrode’s solution. […] When IKr was recorded, IKs was inhibited by using the selective IKs blocker HMR-1556 (0.5 µM). […]
For orientation: The patch-clamp technique gives a direct electrical read-out from membranes.

The subject of test [2] is IKACh in dog atrial trabecular muscle preparations. The test can be described thus: Action potential duration in carbachol-pretreated dog atrial trabecular muscle. To be noted: 10 µM, after 1 µM carbachol for 10 min. The procedure: The possible effect of SZV-2649 on IKACh was investigated in dog atrial trabecular muscle preparations. Carbachol (1 µM) was added to the tissue bath for 10 min to activate IKACh. […] Application of 10 µM SZV-2649 prolonged APD substantially to a greater degree (100%) than could be expected by its effect on repolarization in the absence of carbachol (10%) as shown in Table 1; Fig. 5D.
Action potentials were recorded in cardiac ventricular trabeculae and papillary muscle preparations obtained from the right ventricles of Beagle dogs (10–15 kg) of either sex using the conventional microelectrode technique. Dogs were sacrificed by iv. sedation with xylazine (1 mg/kg), followed by i.v. administration of 50 mg/kg pentobarbital. After the cornea reflex disapeared the chest was opened, and the heart was rapidly removed. […]
Isolated papillary muscle or atrial trabecula and Purkinje fiber preparations were obtained and prepared from the right ventricle and were individually mounted in a tissue chamber with the volume of 50 ml. […] Transmembrane potentials were recorded using conventional glass microelectrodes, filled with 3 M KCl and having tip resistances of 5–20 MΩ, connected to the input of a high impedance electrometer (Experimetria, type 309, Budapest, Hungary) which was coupled to a dual beam oscilloscope. […]

The next test has as its system dog atrial muscle. The test can be described thus: Conventional microelectrode action potential recording, dog atrial muscle. To be noted: for APA / APD50 / APD90 / RP / Vmax: atrial muscle, CL = 1000 ms, n = 11. The procedure: The effects of SZV-2649 on action potentials were studied in dog ventricular, atrial and Purkinje fiber preparations.
Action potentials were recorded in cardiac ventricular trabeculae and papillary muscle preparations obtained from the right ventricles of Beagle dogs (10–15 kg) of either sex using the conventional microelectrode technique. Dogs were sacrificed by iv. sedation with xylazine (1 mg/kg), followed by i.v. administration of 50 mg/kg pentobarbital. After the cornea reflex disapeared the chest was opened, and the heart was rapidly removed. The heart was immediately rinsed in oxygenated modified Locke’s solution containing (in mM): NaCl 128.3, KCl 4, CaCl2 1.8, MgCl2 0.42, NaHCO3 21.4, and glucose 10. The pH of this solution was set between 7.35 and 7.4 when gassed with the mixture of 95% O2 and 5% CO2 at 37 °C.
Isolated papillary muscle or atrial trabecula and Purkinje fiber preparations were obtained and prepared from the right ventricle and were individually mounted in a tissue chamber with the volume of 50 ml. Each preparation was initially stimulated through a pair of platinum electrodes in contact with the preparation using rectangular current pulses of 2 ms duration. These stimuli were delivered at a constant cycle length of 1000 ms for at least 60 min allowing the preparation to equilibrate before the measurements were initiated. Transmembrane potentials were recorded using conventional glass microelectrodes, filled with 3 M KCl and having tip resistances of 5–20 MΩ, connected to the input of a high impedance electrometer (Experimetria, type 309, Budapest, Hungary) which was coupled to a dual beam oscilloscope. […] Stimulation with a constant cycle length of 1000 ms was applied in the course of all experiments. Attempts were made to maintain the same impalement throughout each experiment. In case an impalement became dislodged, adjustment was attempted, and if the action potential characteristics of the re-established impalement deviated by less than 5% from the previous measurement, the experiment continued[64]–[67]. All measurements were carried out at 37 °C.

In test [3] the test system is dog right ventricular muscle preparations. The test can be described thus: Conventional microelectrode action potential recording, dog ventricular muscle. To be noted: 10 µM.
The test system of test [4] is late sodium current (INaL). The test can be described thus: Whole-cell patch-clamp, late sodium current in dog ventricular myocytes. Format: cell-based. To be noted: 10 µM, dog left ventricular myocytes. The procedure:
as §1
The late sodium current (INaL) was investigated by application of 2-second-long test pulses to -20 mV from the holding potential of -120 mV with the pulsing cycle length of 5 s. In the internal (pipette) solution, KCl was replaced by 125 mM CsCl to block potassium currents and the external solution contained 1 µM nisoldipine, 0.5 µM HMR-1556 and 0.1 µM dofetilide in order to block ICaL, IKs and IKr currents, respectively.
as §2, §3

For the compound `CC(N)COc1c(I)cc(C#N)cc1I.Cl` (stereo not shown) [SZV-2649, 4-(2-aminopropoxy)-3,5-diiodobenzonitrile hydrochloride], the “Effect on inward rectifier potassium (IK1) current, steady state current-voltage relation” value in test [1] is “no discernible effects”. The “Prolongation of APD in the presence of carbachol” value in test [2] was 100%. For the same compound, in the test with dog atrial muscle (5 µM), the APA came to 108.8 ± 1.9 mV, the APD50 worked out at 73.3 ± 6.2 ms, the APD90 came to 168.9 ± 8.8 ms and the RP is listed as −88.2 ± 1.8 mV. Further, the Vmax with dog atrial muscle (5 µM) was found to be 195.3 ± 22.0 V/s. In the test with dog atrial muscle (10 µM), this compound gave an APA of 102.6 ± 3.2 mV, an APD50 of 70.1 ± 6.2 ms, an APD90 of 176.8 ± 8.5 ms and an RP of −85.1 ± 1.7 mV. The Vmax with dog atrial muscle (10 µM) is reported as 145.9 ± 12.1 V/s. Further, in the test with dog atrial muscle (10 µM, dog atrial muscle), the “Prolongation of repolarization (APD) in the absence of carbachol” value is listed as 10%. In addition, in test [3] (after 1 min rest, stimulation cycle length 400 ms), the “Onset kinetics of Vmax block” value amounted to 3.1. In addition, the “Effect on Vmax as a function of stimulation cycle length” value in test [3] (dog ventricular muscle, steady-state stimulation) was “decreased Vmax at cycle lengths shorter than 2000 ms”. Further, the “Effect on magnitude of INaL” value in test [4] is given as “significantly decreased”.
